Measured values reported in patent publication US11524003B2, “Alpha-amino esters of hydroxypropylthiazolidine carboxamide derivative and salt form, crystal polymorph thereof” (ObsEva S.A., priority 2016, dated 2022).
Values after ≈ are worked out from the molar mass of the structure shown. Like-named read-outs stand apart in the source and are kept apart here.

Columns and labels:
human FP = human FP (Homo sapiens, UniProt P43088); test: IP3 synthesis in FP-transfected HEK293-EBNA cells; conditions: tested up to 10 μM
[1] = Solubility in water, FaSSIF and FeSSIF; format: physicochemical
[2] = test system: OT-induced myometrial contractility; test: Oxytocin-induced contractions of human myometrial biopsies (myograph); conditions: 6, 60, 600, 6000 nM
Procedure: Experiments were performed using a DMT Myograph 800 MS (ADINSTRUMENTS™) in oxygenated Kreb's solution with ADI Powerlab software. Once regular contractions had been established for at least 20 minutes, baseline measurements of spontaneous contraction frequency were recorded. The measurement of spontaneous contraction frequency is represented on the x-axis as “Spon.” A DMSO control or compound II was then added to each myometrial sample at the indicated concentrations and the effects of control or compound II on contractile frequency were measured over the ensuing 10-minute period. This time point is represented on the x-axis as “Compound II.” The effects of compound II on contractile frequency in the presence of OT were subsequently measured by challenging the myometrial tissue samples with increasing concentrations of OT (1 nM, 10 nM, and 100 nM) at sequential 10-minute intervals. […] Once regular contractions had been established for at least 20 minutes, baseline measurements of spontaneous work done per contraction were recorded. The measurement of spontaneous work done per contraction is represented on the x-axis as “Spon.” A DMSO control or compound II was then added to each myometrial sample at the indicated concentrations and the effects of control or compound II on work done per contraction were measured over the ensuing 10-minute period. […]

[3] = target: prostaglandin E receptor 2 (EP2) (Homo sapiens, UniProt P43116); conditions: FP over EP2
Procedure: (§1) Selectivity of compound II was tested against all eight prostaglandin receptor subtypes.

[4] = test system: other prostaglandin receptor subtypes; conditions: FP over other subtypes
Procedure: as §1

Chain of human FP (P43088 whole entry): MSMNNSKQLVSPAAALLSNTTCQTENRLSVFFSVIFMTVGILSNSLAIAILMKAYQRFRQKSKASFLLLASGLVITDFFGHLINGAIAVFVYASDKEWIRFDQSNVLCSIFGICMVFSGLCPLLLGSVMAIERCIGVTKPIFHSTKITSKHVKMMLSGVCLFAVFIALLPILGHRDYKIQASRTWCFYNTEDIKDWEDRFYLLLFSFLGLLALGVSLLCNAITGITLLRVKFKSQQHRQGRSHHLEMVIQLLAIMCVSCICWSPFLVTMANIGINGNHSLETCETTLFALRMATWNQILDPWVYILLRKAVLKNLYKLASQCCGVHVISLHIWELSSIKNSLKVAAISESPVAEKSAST
Chain of prostaglandin E receptor 2 (EP2) (P43116 whole entry): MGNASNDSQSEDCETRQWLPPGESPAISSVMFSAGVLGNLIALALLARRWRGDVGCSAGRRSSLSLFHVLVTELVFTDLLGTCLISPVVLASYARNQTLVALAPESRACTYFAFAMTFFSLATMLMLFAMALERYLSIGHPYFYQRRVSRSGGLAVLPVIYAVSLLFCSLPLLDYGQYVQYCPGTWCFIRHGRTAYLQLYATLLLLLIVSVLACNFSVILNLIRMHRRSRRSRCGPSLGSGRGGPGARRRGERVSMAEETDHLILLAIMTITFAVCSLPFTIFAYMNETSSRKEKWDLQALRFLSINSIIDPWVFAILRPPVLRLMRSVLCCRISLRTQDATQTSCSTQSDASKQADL

O=C(N[C@@H](CCO)c1ccc(F)cc1)[C@@H]1SCCN1S(=O)(=O)c1ccc(-c2ccccc2)cc1 [Compound II, 3-([1,1′-biphenyl]-4-ylsulfonyl)-N-[1-(4-fluorophenyl)-3-hydroxypropyl]-1,3-thiazolidine-2-carboxamide]
Agonist activity (IP3 synthesis when added alone) (human FP): did not induce any synthesis of IP3
solubility ([1]; FaSSIF, pH 6.5 (fasted state), read-out: Solubility in FaSSIF pH 6.5): 0.4 µg/mL (≈ 0.799 µM)
solubility ([1]; FeSSIF, pH 5.0 (fed state), read-out: Solubility in FeSSIF pH 5.0): 10 µg/mL (≈ 20 µM)
Effect on OT-induced myometrial contractility [2]: suppressing both PGF2α-induced and OT-induced myometrial contractility in a dose-dependent fashion
Selectivity versus prostaglandin E receptor 2 (EP2) [3]: approximately 10 fold
Selectivity against other prostaglandin receptors [4]: higher than 100 fold
